In ChEMBL document CHEMBL5727310, “Substituted morpholine derivatives having activity against pain” (2019):
pKi: −log10 of the molar value.

Target: Sigma non-opioid intracellular receptor 1 (Homo sapiens, UniProt Q99720)
Assay: Receptor Radioligand Assay: To investigate binding properties of test compounds to human σ1 receptor, transfected HEK-293 membranes and [3H](+)-pentazocine (Perkin Elmer, NET-1056), as the radioligand, were used. The assay was carried out with 7 μg of membrane suspension, 5 nM of [3H](+)-pentazocine in either absence or presence of either buffer or 10 μM Haloperidol for total and non-specific binding, respectively. Binding buffer contained Tris-HCl 50 mM at pH 8. Plates were incubated at 37° C. for 120 minutes. After the incubation period, the reaction mix was then transferred to MultiScreen HTS, FC plates (Millipore), filtered and plates were washed 3 times with ice-cold 10 mM Tris-HCL (pH7.4). Filters were dried and counted at approximately 40% efficiency in a MicroBeta scintillation counter (Perkin-Elmer) using EcoScint liquid scintillation cocktail

Chain of Sigma non-opioid intracellular receptor 1 (Q99720 whole entry): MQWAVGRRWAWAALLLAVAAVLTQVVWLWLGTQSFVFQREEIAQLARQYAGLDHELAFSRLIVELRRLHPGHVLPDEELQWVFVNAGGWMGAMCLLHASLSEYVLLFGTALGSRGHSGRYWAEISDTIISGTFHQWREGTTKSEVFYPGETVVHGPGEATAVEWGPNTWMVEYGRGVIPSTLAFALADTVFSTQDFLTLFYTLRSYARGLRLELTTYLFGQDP

Structure (SMILES): CCN1CC(C2CCN(CCC(C)C)CC2)OC2(CC2)C1 (stereo unspecified)
- pKi: > 6.30
